Data on three molecules can be found in patent publication US6429212B1, “Medicinal composition” (Ishihara Sangyo Kaisha Ltd., priority 1996, dated 2002).

Assay [1] has as its target T1, human platelet derived endothelial cell growth factor (thymidine phosphorylase) (Homo sapiens, UniProt P19971).
T1 construct: purchased Sigma
T1 sequence (P19971 11-482): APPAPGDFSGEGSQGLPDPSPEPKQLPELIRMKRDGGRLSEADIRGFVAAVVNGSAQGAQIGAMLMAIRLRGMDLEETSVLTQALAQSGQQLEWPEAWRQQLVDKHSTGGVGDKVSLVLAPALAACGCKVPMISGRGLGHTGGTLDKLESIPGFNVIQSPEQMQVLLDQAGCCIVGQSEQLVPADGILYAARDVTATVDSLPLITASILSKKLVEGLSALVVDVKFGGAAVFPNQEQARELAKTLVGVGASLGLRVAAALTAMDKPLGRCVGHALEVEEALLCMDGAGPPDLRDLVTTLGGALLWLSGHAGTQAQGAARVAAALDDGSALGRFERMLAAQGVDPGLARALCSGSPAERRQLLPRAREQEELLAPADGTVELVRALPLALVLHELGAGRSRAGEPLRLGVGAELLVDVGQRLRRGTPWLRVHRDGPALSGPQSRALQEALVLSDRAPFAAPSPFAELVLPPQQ
The assay can be described thus: Inhibitory activity to platelet derived endothelial cell growth factor (thymidine phosphorylase). It counts as biochemical. As to conditions: 37° C., 90 minutes, pH 5.6, absorbance at 300 nm; from 0.1, 1, 10 and 100 μg/ml. As for the experimental part: (1) 100 mmol/l of thymidine (produced by Wako Pure Chemical Industries, Ltd.), 500 mmol/l of K2HPO4 (produced by Nacalai Tesque) and 0.5 mol/l of 2-morpholinoethansulfonic acid.H2O (pH 5.6; produced by Dojindo Laboratories) were prepared.
(2) The compound of the general formula (I) was dissolved in dimethylsulfoxide solution having a concentration of at most 10%, to prepare a test sample having a concentration of the compound of the general formula (I) of 1.0 mg/ml.
(3) 5 μg/ml of human platelet derived endothelial cell growth factor (produced by Sigma) was prepared. […]
(6) Absorbance of the solution for measurement was measured by using a spectrophotometer (SPECTRA max 250: produced by Molecular Devices) at a wavelength of 300 nm.
(7) Sterile water was added to 100 μl of buffer solution having 0.5 mol/l of 2-morpholinoethansulfonic acid.H2O (pH 5.6) and 20 μl of the test sample having a concentration of the compound of the general formula (I) of 1.0 mg/ml, so that the total amount was 200 μl, to prepare a solution of the compound of the general formula (I) having a final concentration of 100 μg/ml. Absorbance of a liquid having 50 μl of 2N-NaOH added to 50 μl of the solution, as a sample for measuring background, was measured at a wavelength of 300 nm. […]

A further assay addresses aminopeptidase N (Homo sapiens, UniProt P15144). Nature of the assay: Inhibitory effect to aminopeptidase N (L-alanine-7-amido-4-methylcoumarin substrate, MOLT-4 cells, fluorescence). As to conditions: based on fluorescence intensity of the control fraction (Table 13, Test Example 9). Type of assay: biochemical. As for the experimental part: As the substrate buffer solution, 100 mM Hepes buffer solution pH 7.6 (including 120 mM sodium chloride, 5 mM potassium chloride, 1.2 mM magnesium sulfate and 0.5% bovine serum albumin) was used. After the reaction was finished, fluorescence intensity was measured by using MTP-32 Colonna microplate reader (produced by Colonna Electric) under measurement condition at an excitation wavelength of 380 nm and at an emission wavelength of 440 nm. […] The values in the Table are based on fluorescence intensity of the control fraction, and represent the enzyme-inhibitory activity as IC50 (μg/ml).

SMILES strings stand for the structures.

Sequence of aminopeptidase N (P15144 2-967): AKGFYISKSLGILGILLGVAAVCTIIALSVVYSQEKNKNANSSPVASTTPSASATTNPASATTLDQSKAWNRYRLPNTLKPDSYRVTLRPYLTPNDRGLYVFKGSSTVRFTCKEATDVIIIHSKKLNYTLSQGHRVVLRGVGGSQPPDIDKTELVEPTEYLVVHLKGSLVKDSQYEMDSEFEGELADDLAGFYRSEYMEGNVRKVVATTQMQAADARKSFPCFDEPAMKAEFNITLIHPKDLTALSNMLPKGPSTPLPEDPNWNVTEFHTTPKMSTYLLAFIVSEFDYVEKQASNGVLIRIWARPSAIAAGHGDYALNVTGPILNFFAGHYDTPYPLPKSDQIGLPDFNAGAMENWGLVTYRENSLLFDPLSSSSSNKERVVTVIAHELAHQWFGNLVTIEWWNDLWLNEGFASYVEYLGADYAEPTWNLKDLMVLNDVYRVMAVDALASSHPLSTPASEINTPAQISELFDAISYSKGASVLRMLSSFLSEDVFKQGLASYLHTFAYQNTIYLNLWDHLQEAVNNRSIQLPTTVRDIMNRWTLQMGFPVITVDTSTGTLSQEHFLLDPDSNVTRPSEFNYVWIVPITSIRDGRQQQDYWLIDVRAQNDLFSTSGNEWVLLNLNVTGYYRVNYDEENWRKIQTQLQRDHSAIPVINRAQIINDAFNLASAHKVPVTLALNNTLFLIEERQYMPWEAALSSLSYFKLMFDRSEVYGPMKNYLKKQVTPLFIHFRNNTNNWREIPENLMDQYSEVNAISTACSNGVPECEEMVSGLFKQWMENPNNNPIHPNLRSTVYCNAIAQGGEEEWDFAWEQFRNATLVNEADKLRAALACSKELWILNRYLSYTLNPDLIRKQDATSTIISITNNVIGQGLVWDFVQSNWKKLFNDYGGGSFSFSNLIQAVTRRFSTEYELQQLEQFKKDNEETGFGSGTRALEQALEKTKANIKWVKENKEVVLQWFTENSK

Broadly, the IC50 is the point on the concentration scale where inhibition reaches its midpoint. A low value points to greater potency in that assay. Turning to `O=C1Cc2ccccc2C(=O)N1c1ccccc1` [Compound A-1, N-phenyl-homophthalimide], in assay [1], the IC50 was 160 µM.

`Cc1cccc(C)c1N1C(=O)Cc2ccccc2C1=O` [Compound A-2, N-(2,6-dimethylphenyl)-homophthalimide] showed an IC50 in assay [1] of 230 µM. As to `CSc1ccccc1N1C(=O)c2cccc(O)c2C1=O` [Compound 194], the “Aminopeptidase N inhibiting activity IC50” value on aminopeptidase N was 38 µg/mL.
